{"source": "paper PMC6437697", "about": "(Journal of Medicinal Chemistry, 2019)", "assay_in_all_cases": "KINOMEscan", "type_in_all_cases": "binding", "settings_in_all_cases": "read-out: % control activity remaining", "key": {"TAOK3": {"molecular_target": "T1, TAOK3 (Homo sapiens, UniProt Q9H2K8)", "T1 construct": "purchased Eurofins DiscoverX KINOMEscan", "T1 sequence (Q9H2K8 1-898)": "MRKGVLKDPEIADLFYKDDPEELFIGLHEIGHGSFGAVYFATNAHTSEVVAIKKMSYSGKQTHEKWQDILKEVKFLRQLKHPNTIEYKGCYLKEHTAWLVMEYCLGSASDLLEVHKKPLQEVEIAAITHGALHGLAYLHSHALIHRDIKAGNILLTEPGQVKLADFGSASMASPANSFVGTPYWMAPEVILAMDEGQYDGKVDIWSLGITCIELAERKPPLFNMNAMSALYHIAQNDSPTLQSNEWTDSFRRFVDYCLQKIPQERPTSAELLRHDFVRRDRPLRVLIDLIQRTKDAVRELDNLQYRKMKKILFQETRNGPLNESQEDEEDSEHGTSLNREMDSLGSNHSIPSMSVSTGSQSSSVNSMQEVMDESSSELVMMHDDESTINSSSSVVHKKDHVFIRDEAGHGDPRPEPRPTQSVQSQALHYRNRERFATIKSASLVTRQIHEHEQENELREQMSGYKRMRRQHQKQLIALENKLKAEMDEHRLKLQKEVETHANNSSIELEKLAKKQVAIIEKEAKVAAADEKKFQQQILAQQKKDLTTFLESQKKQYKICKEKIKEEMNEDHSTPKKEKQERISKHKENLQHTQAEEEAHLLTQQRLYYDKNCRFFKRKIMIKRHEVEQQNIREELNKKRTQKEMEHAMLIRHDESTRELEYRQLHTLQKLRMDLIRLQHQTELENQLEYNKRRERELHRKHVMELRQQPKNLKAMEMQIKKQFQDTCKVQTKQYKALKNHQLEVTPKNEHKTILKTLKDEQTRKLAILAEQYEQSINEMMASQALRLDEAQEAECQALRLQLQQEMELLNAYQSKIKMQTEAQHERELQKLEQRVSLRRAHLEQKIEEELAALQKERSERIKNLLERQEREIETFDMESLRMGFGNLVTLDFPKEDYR"}, "SIK": {"molecular_target": "T2, SIK (Homo sapiens, UniProt P57059)", "T2 construct": "purchased Eurofins DiscoverX KINOMEscan"}, "EIF2AK1": {"molecular_target": "T3, EIF2AK1 (Homo sapiens, UniProt Q9BQI3)", "T3 construct": "purchased Eurofins DiscoverX KINOMEscan"}, "DYRK1A": {"molecular_target": "T4, DYRK1A (Homo sapiens, UniProt Q13627)", "T4 construct": "purchased Eurofins DiscoverX KINOMEscan"}, "STK33": {"molecular_target": "T5, STK33 (Homo sapiens, UniProt Q9BYT3)", "T5 construct": "purchased Eurofins DiscoverX KINOMEscan"}, "PIK3CA(C420R)": {"molecular_target": "T6, PIK3CA(C420R) (Homo sapiens, UniProt P42336, C420R)", "T6 construct": "purchased Eurofins DiscoverX KINOMEscan", "T6 sequence (P42336 whole entry C420R)": "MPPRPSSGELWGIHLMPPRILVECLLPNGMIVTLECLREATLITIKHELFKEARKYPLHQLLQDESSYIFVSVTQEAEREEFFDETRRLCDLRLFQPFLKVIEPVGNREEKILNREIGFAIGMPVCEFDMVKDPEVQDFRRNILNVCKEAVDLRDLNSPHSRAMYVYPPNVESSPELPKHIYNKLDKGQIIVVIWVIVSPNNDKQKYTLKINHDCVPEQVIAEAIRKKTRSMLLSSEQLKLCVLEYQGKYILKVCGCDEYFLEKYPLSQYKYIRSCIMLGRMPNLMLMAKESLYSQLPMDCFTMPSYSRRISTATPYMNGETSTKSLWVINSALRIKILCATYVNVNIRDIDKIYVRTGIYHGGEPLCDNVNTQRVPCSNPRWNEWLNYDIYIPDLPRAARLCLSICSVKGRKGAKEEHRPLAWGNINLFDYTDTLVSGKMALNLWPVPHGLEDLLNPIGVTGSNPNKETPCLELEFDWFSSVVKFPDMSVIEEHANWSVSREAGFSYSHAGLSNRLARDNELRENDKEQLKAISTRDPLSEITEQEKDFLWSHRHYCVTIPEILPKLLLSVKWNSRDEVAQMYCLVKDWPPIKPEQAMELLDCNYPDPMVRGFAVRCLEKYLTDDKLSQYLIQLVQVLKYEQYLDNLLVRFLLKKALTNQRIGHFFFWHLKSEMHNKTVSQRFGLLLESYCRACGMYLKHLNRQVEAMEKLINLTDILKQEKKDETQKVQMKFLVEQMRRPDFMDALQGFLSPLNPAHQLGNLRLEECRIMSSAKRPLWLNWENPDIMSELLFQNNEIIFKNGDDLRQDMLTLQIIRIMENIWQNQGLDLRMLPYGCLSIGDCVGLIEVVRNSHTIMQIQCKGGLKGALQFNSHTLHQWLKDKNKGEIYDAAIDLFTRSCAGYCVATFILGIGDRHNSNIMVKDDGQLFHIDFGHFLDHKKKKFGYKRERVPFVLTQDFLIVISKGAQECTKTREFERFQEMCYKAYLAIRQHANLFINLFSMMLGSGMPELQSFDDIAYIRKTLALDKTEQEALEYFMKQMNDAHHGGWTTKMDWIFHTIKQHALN"}, "JNK2": {"molecular_target": "T7, JNK2 (Homo sapiens, UniProt P45984)", "T7 construct": "purchased Eurofins DiscoverX KINOMEscan"}, "EPHA8": {"molecular_target": "T8, EPHA8 (Homo sapiens, UniProt P29322)", "T8 construct": "purchased Eurofins DiscoverX KINOMEscan", "T8 sequence (P29322 28-1005)": "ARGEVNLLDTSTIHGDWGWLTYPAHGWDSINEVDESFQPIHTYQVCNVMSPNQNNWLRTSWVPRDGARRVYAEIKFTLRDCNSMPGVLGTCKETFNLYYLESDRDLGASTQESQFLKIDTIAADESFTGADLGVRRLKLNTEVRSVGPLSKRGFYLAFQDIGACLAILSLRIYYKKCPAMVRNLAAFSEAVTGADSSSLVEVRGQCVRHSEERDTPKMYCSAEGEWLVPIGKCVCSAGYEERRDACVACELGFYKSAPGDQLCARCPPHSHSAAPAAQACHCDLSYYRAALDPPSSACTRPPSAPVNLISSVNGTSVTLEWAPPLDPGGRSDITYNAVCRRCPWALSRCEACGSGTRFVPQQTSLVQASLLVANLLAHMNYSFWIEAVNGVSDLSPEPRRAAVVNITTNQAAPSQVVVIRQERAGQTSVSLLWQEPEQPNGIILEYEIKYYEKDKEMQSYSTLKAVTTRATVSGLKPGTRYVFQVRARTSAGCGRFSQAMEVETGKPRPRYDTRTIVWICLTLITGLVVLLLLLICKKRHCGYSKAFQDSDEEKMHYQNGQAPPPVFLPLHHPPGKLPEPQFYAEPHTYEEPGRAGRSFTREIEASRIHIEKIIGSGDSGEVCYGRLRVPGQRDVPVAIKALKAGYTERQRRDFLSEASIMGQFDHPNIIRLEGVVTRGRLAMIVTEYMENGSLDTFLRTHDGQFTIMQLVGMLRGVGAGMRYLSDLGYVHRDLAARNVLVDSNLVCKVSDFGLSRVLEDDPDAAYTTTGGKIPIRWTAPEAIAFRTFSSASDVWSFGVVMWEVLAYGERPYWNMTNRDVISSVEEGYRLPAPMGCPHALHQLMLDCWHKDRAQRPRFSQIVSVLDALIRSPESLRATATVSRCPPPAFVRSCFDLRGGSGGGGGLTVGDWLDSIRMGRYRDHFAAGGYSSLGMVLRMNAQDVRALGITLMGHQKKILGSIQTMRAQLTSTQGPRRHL"}, "ERK2": {"molecular_target": "T9, ERK2 (Homo sapiens, UniProt P28482)", "T9 construct": "purchased Eurofins DiscoverX KINOMEscan"}, "SGK3": {"molecular_target": "T10, SGK3 (Homo sapiens, UniProt Q96BR1)", "T10 construct": "purchased Eurofins DiscoverX KINOMEscan", "T10 sequence (Q96BR1 1-496)": "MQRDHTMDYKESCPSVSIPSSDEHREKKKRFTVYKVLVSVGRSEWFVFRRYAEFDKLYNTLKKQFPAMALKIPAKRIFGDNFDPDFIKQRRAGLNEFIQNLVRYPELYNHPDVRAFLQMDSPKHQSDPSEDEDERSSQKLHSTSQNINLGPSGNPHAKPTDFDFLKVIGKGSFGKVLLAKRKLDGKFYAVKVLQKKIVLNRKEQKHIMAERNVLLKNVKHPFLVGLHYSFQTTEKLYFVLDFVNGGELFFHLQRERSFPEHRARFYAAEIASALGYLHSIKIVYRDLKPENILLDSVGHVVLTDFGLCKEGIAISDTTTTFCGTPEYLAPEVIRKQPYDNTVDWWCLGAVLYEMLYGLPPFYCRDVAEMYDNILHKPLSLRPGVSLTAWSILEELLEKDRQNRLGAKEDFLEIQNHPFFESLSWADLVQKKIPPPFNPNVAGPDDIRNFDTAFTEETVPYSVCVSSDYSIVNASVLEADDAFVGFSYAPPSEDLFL"}, "PFTK1": {"molecular_target": "T11, PFTK1 (Homo sapiens, UniProt O94921)", "T11 construct": "purchased Eurofins DiscoverX KINOMEscan"}}, "data": [{"compound": "Clc1cc(NCC2CC2)c2ncc(-c3ccc4[nH]ncc4c3)n2n1", "note": "[compound 2, 6-Chloro-N-(cyclopropylmethyl)-3-(1H-indazol-5-yl)imidazo[1,2-b]pyridazin-8-amine]", "values": [{"measurement": "remaining binding at 1 µM", "setting": "TAOK3", "value": 92, "unit": "%"}, {"measurement": "remaining binding at 1 µM", "setting": "SIK", "value": 98, "unit": "%"}, {"measurement": "remaining binding at 1 µM", "setting": "EIF2AK1", "value": 100, "unit": "%"}, {"measurement": "remaining binding at 1 µM", "setting": "DYRK1A", "value": 5.1, "unit": "%"}, {"measurement": "remaining binding at 1 µM", "setting": "STK33", "value": 47, "unit": "%"}, {"measurement": "remaining binding at 1 µM", "setting": "PIK3CA(C420R)", "value": 88, "unit": "%"}, {"measurement": "remaining binding at 1 µM", "setting": "JNK2", "value": 91, "unit": "%"}, {"measurement": "remaining binding at 1 µM", "setting": "EPHA8", "value": 90, "unit": "%"}, {"measurement": "remaining binding at 1 µM", "setting": "ERK2", "value": 92, "unit": "%"}, {"measurement": "remaining binding at 1 µM", "setting": "SGK3", "value": 91, "unit": "%"}, {"measurement": "remaining binding at 1 µM", "setting": "PFTK1", "value": 87, "unit": "%"}]}, {"compound": "O=C(CN1CCOCC1)N[C@H]1CC[C@H](Nc2cc(Cl)nn3c(-c4ccc5[nH]ncc5c4)cnc23)CC1", "note": "[compound 26]", "values": [{"measurement": "remaining binding at 1 µM", "setting": "TAOK3", "value": 91, "unit": "%"}, {"measurement": "remaining binding at 1 µM", "setting": "SIK", "value": 89, "unit": "%"}, {"measurement": "remaining binding at 1 µM", "setting": "EIF2AK1", "value": 78, "unit": "%"}, {"measurement": "remaining binding at 1 µM", "setting": "DYRK1A", "value": 0.35, "unit": "%"}, {"measurement": "remaining binding at 1 µM", "setting": "STK33", "value": 25, "unit": "%"}, {"measurement": "remaining binding at 1 µM", "setting": "PIK3CA(C420R)", "value": 89, "unit": "%"}, {"measurement": "remaining binding at 1 µM", "setting": "JNK2", "value": 80, "unit": "%"}, {"measurement": "remaining binding at 1 µM", "setting": "EPHA8", "value": 90, "unit": "%"}, {"measurement": "remaining binding at 1 µM", "setting": "ERK2", "value": 93, "unit": "%"}, {"measurement": "remaining binding at 1 µM", "setting": "SGK3", "value": 65, "unit": "%"}, {"measurement": "remaining binding at 1 µM", "setting": "PFTK1", "value": 99, "unit": "%"}]}, {"compound": "CN1CCC(CNc2cc(Cl)nn3c(-c4cc5nc(Nc6ccccc6)[nH]c5cc4F)cnc23)CC1", "note": "[compound 31, 6-Chloro-3-(6-fluoro-2-(phenylamino)-1H-benzo[d]imidazol-5-yl)-N-((1-methylpiperidin-4-yl)methyl)imidazo[1,2-b]pyridazin-8-amine]", "values": [{"measurement": "remaining binding at 1 µM", "setting": "TAOK3", "value": 77, "unit": "%"}, {"measurement": "remaining binding at 1 µM", "setting": "SIK", "value": 91, "unit": "%"}, {"measurement": "remaining binding at 1 µM", "setting": "EIF2AK1", "value": 78, "unit": "%"}, {"measurement": "remaining binding at 1 µM", "setting": "DYRK1A", "value": 71, "unit": "%"}, {"measurement": "remaining binding at 1 µM", "setting": "STK33", "value": 100, "unit": "%"}, {"measurement": "remaining binding at 1 µM", "setting": "PIK3CA(C420R)", "value": 85, "unit": "%"}, {"measurement": "remaining binding at 1 µM", "setting": "JNK2", "value": 75, "unit": "%"}, {"measurement": "remaining binding at 1 µM", "setting": "EPHA8", "value": 92, "unit": "%"}, {"measurement": "remaining binding at 1 µM", "setting": "ERK2", "value": 99, "unit": "%"}, {"measurement": "remaining binding at 1 µM", "setting": "SGK3", "value": 93, "unit": "%"}, {"measurement": "remaining binding at 1 µM", "setting": "PFTK1", "value": 96, "unit": "%"}]}]}
